Source: publication PMC4604124, “In Vitro Characterization of the Pharmacological Properties of the Anti-Cancer Chelator, Bp4eT, and Its Phase I Metabolites” (PLoS ONE, 2015)
Values joined by “and” are separate entries in the source; they are usually repeats but may differ in a detail not shown here. Identical values can stand only once.

What was measured:
[1] = system: HCT116 human colorectal carcinoma cells; experiment: MTT cytotoxicity assay, HCT116 cells; assay type: cell-based; settings: for IC50: MTT
Procedure: For cytotoxicity experiments, cancer cells were seeded at a density of 5,000 (MCF-7), 10,000 (HL-60) or 2,000 cells/well (HCT116 and A549) in 96-well plates (TPP) for 24 h/37°C prior to the addition of examined agents. The non-cancerous cells, 3T3 and H9c2 cells, were cultured for 24 h/37°C in 96-well plates at a density of 10,000 cells/well, the medium was then changed to serum- and pyruvate-free DMEM (Sigma-Aldrich) and incubated with the cells for another 24 h/37°C. The cytotoxic effects of Bp4eT and its metabolites were studied at different concentrations after a 72 h/37°C incubation. In order to aid the dissolution of the lipophilic ligands, 0.1% dimethyl sulfoxide (v/v) (DMSO; Sigma-Aldrich) was present in the culture medium of all groups. At this concentration, DMSO had no effect on cellular proliferation or viability.
The viability of cells were determined using an MTT assay (Sigma-Aldrich) according to previously established methods. The optical density of soluble MTT was measured at λ = 570 nm, subtracting the λ = 690 nm background using a Tecan Infinite 200M plate reader (Tecan Group, Männedorf, Switzerland). The viability or proliferation of experimental groups was expressed as a percentage of the untreated controls (100%).
SigmaStat for Windows 3.5 (Systat Software, San Jose, CA, USA) statistical software package was utilized to analyze results. The data are expressed as the mean ± SD of a given number of experiments. Statistical significance was determined using a one-way ANOVA with a Bonferroni post-hoc test or Student’s t-test. The results were considered to be statistically significant when p < 0.05. The IC50 values were calculated using CalcuSyn 2.0 software (Biosoft, Cambridge, UK). Cell cycle analysis was evaluated using MultiCycle AV Software (Phoenix Flow Systems, San Diego, CA, USA).

[2] = Ascorbate oxidation assay (redox activity of iron complexes); assay type: biochemical;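 on %Fe 30min (ascorbate oxidation, Fe 100%), průměr: IBE 3 means excess free chelator over iron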;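 on %Fe 30min (ascorbate oxidation, Fe 100%): IBE 3 means excess free chelator over iron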;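 on %Fe 30min: ascorbate oxidation as % of the Fe control (Fe 100%): IBE 0.1 means iron-binding equivalents with iron in excess over chelator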;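 on Change of absorbance, odečet 0 (time 0 subtracted), čas 10, průměr: IBE 3 means excess free chelator over 10 µM FeCl3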;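 on Change of absorbance, odečet 0 (time 0 subtracted), čas 10: IBE 3 means excess free chelator over 10 µM FeCl3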
Procedure: The ascorbate oxidation assay was used to assess the redox activity of the iron complexes of the chelators using an established protocol. In brief, 100 μM ascorbic acid was prepared immediately prior to the experiment and incubated either alone or in the presence of 10 μM FeCl3 in a 50-fold molar excess (500 μM) of citrate and the chelators. Chelators were assayed at iron-binding equivalents (IBE) of 0.1 (excess of iron), 1 (fully coordinated iron—chelator complexes) and 3 (excess of free chelator). […] The decrease of absorbance between the two time points was calculated and expressed as a percentage of control without the chelator.

[3] = system: labile iron pool of MCF-7 cells; experiment: Calcein-AM assay, access to the labile iron pool; assay type: cell-based, human; design: Calcein fluorescence: unit not given here; settings: 10 μM; for Calcein fluorescence: mean (průměr)
Procedure: These experiments were performed according to Glickstein et al. with slight modifications. The MCF-7 cells were seeded in 96-well plates (10,000 cells/well) and allowed to adhere for 24 h/37°C. Cells were loaded with iron using the cellular iron donor, ferric ammonium citrate (530 μg/mL), 24 h prior to the experiment, and then washed. To prevent potential interference, especially with regard to various trace elements, the medium was replaced with ADS buffer (prepared using Millipore water supplemented with 116 mM NaCl, 5.3 mM KCl, 1 mM CaCl2, 1.2 mM MgSO4, 1.13 mM NaH2PO4, 5 mM D-glucose, and 20 mM HEPES, pH 7.4). Cells were then loaded with 2 μM of the cell-permeable calcein green acetoxymethyl ester (calcein-AM; Molecular Probes, Oregon, USA) for 30 min/37°C and washed. Cellular esterases cleave the acetoxymethyl groups to form the cell membrane-impermeable compound, calcein green. The fluorescence of calcein green is quenched upon binding iron. The intracellular fluorescence (λex = 488 nm; λem = 530 nm) of calcein green was then followed as a function of time (10 min after the addition of 10 μM Bp4eT or its metabolites) at 37°C using the Tecan Infinite 200M plate reader. The iron chelation efficacy of the metabolites in cells was expressed as a percentage of the efficacy of the parent chelator, Bp4eT (100%).

[4] = sheet IBE 1, time 10, replicates
[5] = sheet IBE 1, time 20, replicates
[6] = sheet IBE 1, time 30, replicates

Compound: CCN=CNN=C(c1ccccc1)c1ccccn1 [Bp4eA, N ^3-ethyl-N ^1-[phenyl(pyridin-2-yl)methylene]formamidrazone]
- Therapeutic index, IC50 non-cancerous cells / IC50 neoplastic cells ([1]; 3T3/HCT116): 9.2
- Therapeutic index, IC50 non-cancerous cells / IC50 neoplastic cells ([1]; H9c2/HCT116): 3.7
- MTT, relative to control (0 = 100) ([1]; HCT116, 2 000 b/j, 1 μM, průměr (mean), sheet Bp4eA): 97.58
- MTT, relative to control (0 = 100) ([1]; HCT116, 2 000 b/j, 1 μM, single experiment (date), sheet Bp4eA): 99.1509 and 100.455 and 96.4816 and 94.6996 and 96.3825 and 98.3223
- MTT, relative to control (0 = 100) ([1]; HCT116, 2 000 b/j, 3 μM, průměr (mean), sheet Bp4eA): 97.04
- MTT, relative to control (0 = 100) ([1]; HCT116, 2 000 b/j, 3 μM, single experiment (date), sheet Bp4eA): 97.9686 and 98.7085 and 92.1521 and 93.3267 and 100.675 and 99.4316
- MTT, relative to control (0 = 100) ([1]; HCT116, 2 000 b/j, 10 μM, průměr (mean), sheet Bp4eA): 94.04
- MTT, relative to control (0 = 100) ([1]; HCT116, 2 000 b/j, 10 μM, single experiment (date), sheet Bp4eA): 94.463 and 96.9011 and 92.7169 and 93.3863 and 93.3144 and 93.4876
- MTT, relative to control (0 = 100) ([1]; HCT116, 2 000 b/j, 30 μM, průměr (mean), sheet Bp4eA): 89.95
- MTT, relative to control (0 = 100) ([1]; HCT116, 2 000 b/j, 30 μM, single experiment (date), sheet Bp4eA): 90.1675 and 87.4242 and 84.0067 and 87.0754 and 95.7934 and 95.2315
- MTT, relative to control (0 = 100) ([1]; HCT116, 2 000 b/j, 100 μM, průměr (mean), sheet Bp4eA): 58.40
- MTT, relative to control (0 = 100) ([1]; HCT116, 2 000 b/j, 100 μM, single experiment (date), sheet Bp4eA): 42.8559 and 58.6495 and 64.6288 and 67.4584
- MTT, relative to control (0 = 100) ([1]; HCT116, 2 000 b/j, 300 μM, průměr (mean), sheet Bp4eA): 9.79
- MTT, relative to control (0 = 100) ([1]; HCT116, 2 000 b/j, 1000 μM, průměr (mean), sheet Bp4eA): 2.29
- IC50 ([1]; HCT116, 2 000 b/j, single experiment (date), sheet Bp4eA): 115 µM and 125 µM (2×)
- IC50 ([1]; Homo sapiens, HCT-116, 72 h, HCT116, 72 h/37°C, mean ± SD, n ≥ 4): 112 ± 20.9 µM
- IC50 ([1]; Homo sapiens, HCT-116, HCT116, 2 000 b/j, průměr (mean), sheet Bp4eA): 112 µM
- IC50 ([1]; Homo sapiens, HCT-116, HCT116, 2 000 b/j, single experiment (date), sheet Bp4eA): 80.9 µM
- %Fe 30min: ascorbate oxidation as % of the Fe control (Fe 100%) ([2]; IBE 0.1, 30 min, mean (průměr)): 102.5%
- Change of absorbance after subtraction of time 0 (odečet 0) ([2]; IBE 0.1, time 10, mean (průměr)): -0.03561
- Change of absorbance after subtraction of time 0 (odečet 0) ([2]; IBE 0.1, time 20, mean (průměr)): -0.0674
- Change of absorbance after subtraction of time 0 (odečet 0) ([2]; IBE 0.1, time 30, mean (průměr)): -0.09706
- Absorbance (ascorbate, λ = 265 nm) ([2]; IBE 0.1, čas 0 (time 0), mean (průměr)): 0.8401
- Absorbance (ascorbate, λ = 265 nm) ([2]; IBE 0.1, čas 10 (time 10), mean (průměr)): 0.8044
- Absorbance (ascorbate, λ = 265 nm) ([2]; IBE 0.1, čas 20 (time 20), mean (průměr)): 0.7727
- Absorbance (ascorbate, λ = 265 nm) ([2]; IBE 0.1, čas 30 (time 30), mean (průměr)): 0.743
- %Fe 30min (ascorbate oxidation, Fe = 100%), průměr (mean) ([2]; sheet IBE 1, 30min, Fe 100%, mean): 106.5%
- %Fe 30min (ascorbate oxidation, Fe = 100%), single replicates ([2]; sheet IBE 1, 30min, Fe 100%, replicates): 113.3% and 104.9% and 102.6% and 110.5% and 113.6% and 110.3% and 106.1% and 101.1% and 95.68%
- raw reading at čas 0 (time 0), průměr (mean) ([2]; sheet IBE 1, time 0, mean of 9 readings): 0.8163
- raw reading at čas 0 (time 0), single replicates ([2]; sheet IBE 1, time 0, replicates of 2014-03-24 (two runs) and 2014-03-25): 0.8356 and 0.8379 and 0.8058 and 0.8059 and 0.8041 and 0.8006 and 0.8152 and 0.8134 and 0.828
- odečet 0 (reading minus time 0 reading) at čas 10, průměr (mean) ([2]; sheet IBE 1, time 10, mean): -0.03248
- raw reading at čas 10 (time 10), průměr (mean) ([2]; sheet IBE 1, time 10, mean of 9 readings): 0.7838
- odečet 0 (reading minus time 0 reading) at čas 10, single replicates [2, 4]: -0.02971 and -0.02191 and -0.02781 and -0.03858 and -0.03648 and -0.03745 and -0.03205 and -0.03185
- raw reading at čas 10 (time 10), single replicates [2, 4]: 0.7761 and 0.784 and 0.7763 and 0.762 and 0.7787 and 0.7769 and 0.7906 and 0.8036 and 0.8061
- odečet 0 (reading minus time 0 reading) at čas 20, průměr (mean) ([2]; sheet IBE 1, time 20, mean): -0.06498
- raw reading at čas 20 (time 20), průměr (mean) ([2]; sheet IBE 1, time 20, mean of 9 readings): 0.7513
- odečet 0 (reading minus time 0 reading) at čas 20, single replicates [2, 5]: -0.0647 and -0.0595 and -0.0576 and -0.07087 and -0.07167 and -0.06987 and -0.06821 and -0.06221 and -0.06021
- raw reading at čas 20 (time 20), single replicates [2, 5]: 0.7411 and 0.7464 and 0.7465 and 0.7297 and 0.7435 and 0.7598 and 0.7734 and 0.7777
- odečet 0 (reading minus time 0 reading) at čas 30, průměr (mean) ([2]; sheet IBE 1, time 30, mean): -0.09465
- raw reading at čas 30 (time 30), průměr (mean) ([2]; sheet IBE 1, time 30, mean of 9 readings): 0.7216
- odečet 0 (reading minus time 0 reading) at čas 30, single replicates [2, 6]: -0.09786 and -0.09066 and -0.08866 and -0.09551 and -0.09811 and -0.09531 and -0.1001 and -0.09539 and -0.09029
- raw reading at čas 30 (time 30), single replicates [2, 6]: 0.7079 and 0.7152 and 0.7154 and 0.7051 and 0.7171 and 0.7181 and 0.7279 and 0.7402 and 0.7477
- %Fe 30min (ascorbate oxidation, Fe 100%), průměr ([2]; sheet IBE 3, 30min, Fe alone = 100%, mean (průměr) of the 9 replicates): 105.3%
- %Fe 30min (ascorbate oxidation, Fe 100%) ([2]; sheet IBE 3, 30min, Fe alone = 100%, single replicates): 100.1% and 103.3% and 98.42% and 112.4% and 108.5% and 106.2% and 109.9% and 107% and 102%
- Change of absorbance, odečet 0 (time 0 subtracted), čas 10, průměr ([2]; sheet IBE 3, time 10 minus time 0, mean (průměr)): -0.03537
- Change of absorbance, odečet 0 (time 0 subtracted), čas 10 ([2]; sheet IBE 3, time 10 minus time 0, single replicates): -0.03156 and -0.03676 and -0.03266 and -0.04073 and -0.03893 and -0.03883 and -0.03458 and -0.03388 and -0.03038
- Change of absorbance, odečet 0 (time 0 subtracted), čas 20, průměr ([2]; sheet IBE 3, time 20 minus time 0, mean (průměr)): -0.06757
- Change of absorbance, odečet 0 (time 0 subtracted), čas 20 ([2]; sheet IBE 3, time 20 minus time 0, single replicates): -0.06509 and -0.07099 and -0.06549 and -0.07376 and -0.07016 and -0.07036 and -0.06559 and -0.06109
- Change of absorbance, odečet 0 (time 0 subtracted), čas 30, průměr ([2]; sheet IBE 3, time 30 minus time 0, mean (průměr)): -0.0973
- Change of absorbance, odečet 0 (time 0 subtracted), čas 30 ([2]; sheet IBE 3, time 30 minus time 0, single replicates): -0.09296 and -0.09586 and -0.09136 and -0.1043 and -0.1007 and -0.0986 and -0.1006 and -0.09796 and -0.09336
- Calcein fluorescence ([3]; 30 sec): 16.628
- Calcein fluorescence ([3]; 60 sec): 5.072
- Calcein fluorescence ([3]; 90 sec): 8.535
- Calcein fluorescence ([3]; 120 sec): 16.564
- Calcein fluorescence ([3]; 300 sec): 13.356
- Calcein fluorescence ([3]; 600 sec): 12.951
- Chelation efficacy: fluorescence of free calcein at t = 600 s as percentage of Bp4eT ([3]; MCF-7, mean of 6 experiments): 5.9% and 5.872%
